From PubChem BioAssay (NCI) come the findings set out here.

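Cultured in 96-well plates, cells were exposed to test compound for 48 hours across five concentrations. Definition used: TGI = concentration required for complete inhibition of growth.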

Among the test systems are NCI-H23 lung; RPMI-8226 leukemia; HL-60(TB) leukemia; OVCAR-8 ovarian; KM12 colon; MDA-N; HT29 colon; ACHN renal; HOP-62 NSCLC; CCRF-CEM leukemia; UO-31 renal; EKVX NSCLC; SNB-75 CNS; SF-295 CNS; M14 melanoma; SW-620 colon; DU-145 prostate; SF-268 CNS.
Holding throughout (experiment): DTP human tumour cell line panel, 48 h

The term TGI denotes the concentration giving total growth inhibition. Low values mean more potent growth arrest, high ones less potent growth arrest. On to `Nn1c(Cc2ccc([N+](=O)[O-])cc2)n[nH]c1=O`, for which the TGI in the test on NCI-H23 lung, with RPMI-8226 leukemia, with HL-60(TB) leukemia, in the test on OVCAR-8 ovarian, in the test with KM12 colon and in the test with MDA-N was greater than 100 µM throughout. Besides, the TGI in the test with HT29 colon, in the test with ACHN renal, in the test on HOP-62 NSCLC, in the test with CCRF-CEM leukemia, in the test with UO-31 renal and in the test with EKVX NSCLC was greater than 100 µM throughout. In addition, the TGI in the test on SNB-75 CNS, with SF-295 CNS, with M14 melanoma, with SW-620 colon, with DU-145 prostate and in the test on SF-268 CNS was greater than 100 µM each time.

Take `COc1ccccc1C(=O)c1c(NCc2ccccc2)c(=O)c1=O`: the TGI in the test on NCI-H23 lung, in the test on RPMI-8226 leukemia, in the test on HL-60(TB) leukemia, in the test with OVCAR-8 ovarian, with KM12 colon and in the test on MDA-N was greater than 100 µM throughout. Also, the TGI in the test on HT29 colon, with ACHN renal, in the test on HOP-62 NSCLC, with CCRF-CEM leukemia, in the test on UO-31 renal and in the test on EKVX NSCLC was greater than 100 µM throughout. Further, the TGI is greater than 100 µM with SNB-75 CNS; greater than 100 µM in the test on SF-295 CNS; greater than 100 µM in the test with M14 melanoma; 37.8 µM in the test with SW-620 colon; greater than 100 µM in the test on DU-145 prostate; greater than 100 µM in the test with SF-268 CNS.

Take `Cc1ccc(NC(=O)c2cc(S(=O)(=O)Nc3nc4ncccc4[nH]3)c(SSc3cc(Cl)c(C(=O)Nc4ccc(C)cc4)cc3S(=O)(=O)Nc3nc4ncccc4[nH]3)cc2Cl)cc1`: the TGI in the test on NCI-H23 lung, in the test on RPMI-8226 leukemia, in the test on HL-60(TB) leukemia, in the test on OVCAR-8 ovarian, with KM12 colon and in the test on MDA-N was greater than 100 µM in each case. In addition, the TGI in the test with HT29 colon, in the test on ACHN renal, in the test on HOP-62 NSCLC, in the test on CCRF-CEM leukemia, in the test with UO-31 renal and in the test on EKVX NSCLC was greater than 100 µM throughout. The TGI with SNB-75 CNS, in the test on SF-295 CNS, in the test on M14 melanoma, in the test on SW-620 colon, with DU-145 prostate and with SF-268 CNS was greater than 100 µM in each case.

Take `O=[N+]([O-])c1cc(-c2nc(-c3ccccc3)c(-c3ccccc3)[nH]2)c(O)c([N+](=O)[O-])c1`: the TGI with NCI-H23 lung was 36.1 µM; with RPMI-8226 leukemia it was 75.1 µM; with HL-60(TB) leukemia, 70.1 µM; with OVCAR-8 ovarian it was greater than 100 µM; in the test with KM12 colon, 65.1 µM; in the test with MDA-N it was greater than 100 µM. In addition, the TGI in the test on HT29 colon came out at 35.8 µM; with ACHN renal, 46.7 µM; with HOP-62 NSCLC it was 43.4 µM; in the test with CCRF-CEM leukemia, 72.7 µM; with UO-31 renal, 33.4 µM; in the test with EKVX NSCLC, 58.9 µM. Moreover, the TGI is 60 µM in the test on SNB-75 CNS; 54.2 µM in the test on SF-295 CNS; 46.4 µM in the test with M14 melanoma; 90.8 µM in the test with SW-620 colon; 55.4 µM with DU-145 prostate; greater than 100 µM with SF-268 CNS.

For `CC(C(O)c1ccccc1)C(O)(C(F)(F)F)C(F)(F)F` (stereo unspecified), the TGI in the test with NCI-H23 lung, in the test on RPMI-8226 leukemia, in the test with HL-60(TB) leukemia, with OVCAR-8 ovarian, with KM12 colon and in the test on MDA-N was greater than 100 µM each time. The TGI in the test on HT29 colon, in the test on ACHN renal, in the test on HOP-62 NSCLC, in the test with CCRF-CEM leukemia, in the test on UO-31 renal and with EKVX NSCLC was greater than 100 µM each time. Also, the TGI in the test with SNB-75 CNS, in the test on SF-295 CNS, with M14 melanoma, with SW-620 colon, in the test with DU-145 prostate and with SF-268 CNS was greater than 100 µM in each case.

In the case of `CC(=O)c1cc2ccccc2oc1=O`, the TGI with NCI-H23 lung, in the test with RPMI-8226 leukemia, with HL-60(TB) leukemia, in the test with OVCAR-8 ovarian, with KM12 colon and in the test with MDA-N was greater than 100 µM each time. In addition, the TGI with HT29 colon, in the test on ACHN renal, in the test with HOP-62 NSCLC, with CCRF-CEM leukemia, in the test on UO-31 renal and in the test on EKVX NSCLC was greater than 100 µM in each case. Also, the TGI with SNB-75 CNS, with SF-295 CNS, in the test with M14 melanoma, in the test with SW-620 colon, in the test on DU-145 prostate and in the test with SF-268 CNS was greater than 100 µM throughout.

Take `CCCCCCCCCCNC(=O)CCC(NC(=O)c1ccc(N(C)Cc2cnc3nc(N)nc(N)c3n2)cc1)C(=O)NCCCCCCCCCC` (stereo unspecified): the TGI with NCI-H23 lung is 54.4 µM; in the test with RPMI-8226 leukemia, greater than 70.4 µM; with HL-60(TB) leukemia, greater than 25.3 µM; in the test with OVCAR-8 ovarian, 25.5 µM; with KM12 colon it was 16.2 µM; in the test with MDA-N, 21.9 µM. The TGI with HT29 colon is 35.2 µM; with ACHN renal it was greater than 100 µM; with HOP-62 NSCLC, greater than 95.7 µM; in the test on CCRF-CEM leukemia, 5.9 µM; with UO-31 renal, greater than 100 µM; in the test with EKVX NSCLC, greater than 78.3 µM. Also, the TGI was 32.1 µM in the test with SNB-75 CNS; greater than 100 µM with SF-295 CNS; 57.7 µM in the test with M14 melanoma; 13.5 µM with SW-620 colon; greater than 70.2 µM in the test with DU-145 prostate; 40.2 µM in the test on SF-268 CNS.
